According to ChEMBL document CHEMBL3877282, “Synthesis and structure-activity studies of side chain analogues of the anti-tubercular agent, Q203” (Eur J Med Chem, 2017):
≈ marks a conversion by molar mass, not a printed value.

How the values were obtained:
[1] = tested on: Mycobacterium tuberculosis; assay: Antimycobacterial activity against GFP-fused Mycobacterium tuberculosis H37Rv in liquid broth culture medium; format: functional
[2] = Cmax in mouse at 10 mg/kg, po; format: ADME, organism-based; set-up: dose 10 mg/kg, route oral; conditions: in vivo
[3] = AUC (0 to infinity) in mouse at 10 mg/kg, po; format: ADME, organism-based; set-up: dose 10 mg/kg, route oral, time infinity; conditions: in vivo
[4] = Clearance in mouse at 2 mg/kg, iv; format: ADME, organism-based; conditions: in vivo
[5] = tested on: Mycobacterium tuberculosis; assay: Antimycobacterial activity against GFP-fused Mycobacterium tuberculosis H37Rv infected in macrophages; format: functional
[6] = Half life in mouse at 10 mg/kg, po; format: ADME, organism-based; conditions: in vivo
[7] = Half life in mouse at 2 mg/kg, iv; format: ADME, organism-based; conditions: in vivo
[8] = Tmax in mouse at 10 mg/kg, po; format: ADME, organism-based; conditions: in vivo
[9] = Volume of distribution at steady state in mouse at 2 mg/kg, iv; format: ADME, organism-based; conditions: in vivo, read-out: Vdss
[10] = Oral bioavailability in mouse at 10 mg/kg; format: ADME, organism-based; conditions: in vivo

CCc1nc2ccc(Cl)cn2c1C(=O)NCc1ccc(N2CCN(C(=O)c3ccc(F)cc3)CC2)cc1
MIC80 [1]: 0.534 µM (≈ 0.278 µg/mL)

CCc1nc2cc(Cl)ccn2c1C(=O)NCc1ccc(OCc2ccc(F)cc2)cc1
MIC80 [1]: 0.02 µM (≈ 0.00876 µg/mL)

CCc1nc2cc(Cl)ccn2c1C(=O)NCc1ccc(N2CCC(Cc3ccccc3)CC2)cc1
MIC80 [1]: 0.022 µM (≈ 0.0107 µg/mL)

CCc1nc2ccc(Cl)cn2c1C(=O)NCc1ccc(N2CCN(C(=O)Cc3ccc(F)cc3)CC2)cc1
MIC80 [1]: 0.373 µM (≈ 0.199 µg/mL)

CCc1nc2cc(Cl)ccn2c1C(=O)NCc1ccc(OCc2ccc(OC(F)(F)F)cc2)cc1
Cmax [2]: 1640 ng/mL | MIC80 [1]: 0.015 µM (≈ 0.00756 µg/mL) | AUC(0-inf) [3]: 11500 ng·h/mL | clearance [4]: 5.77 mL/min/kg | MIC80 [5]: < 0.001 µM | half-life [6]: 11.9 h | half-life [7]: 13.9 h | Tmax [8]: 0.5 h | Vd [9]: 4.68 L/kg | bioavailability [10]: 53.4%

CCc1nc2cc(Cl)ccn2c1C(=O)NCc1ccc(NCc2ccc(OC(F)(F)F)cc2)cc1
MIC80 [1]: 0.25 µM (≈ 0.126 µg/mL)

CCc1nc2ccc(Cl)cn2c1C(=O)NCc1ccc(N2CCC(Oc3ccc(Cl)cc3)C2)cc1 (single isomer, unassigned; 41)
MIC80 [1]: 0.014 µM (≈ 0.00713 µg/mL)

CCc1nc2ccc(Cl)cn2c1C(=O)NCc1ccc(N2CCC(COc3ccc(OC(F)(F)F)cc3)CC2)cc1
MIC80 [1]: 0.037 µM (≈ 0.0217 µg/mL)

NNC(=O)c1ccncc1 [ISONIAZID]
MIC80 [1]: 0.49 µM (≈ 0.0672 µg/mL) | MIC80 [5]: 0.2 µM (≈ 0.0274 µg/mL)

CCc1nc2ccc(Cl)cn2c1C(=O)NCc1ccc(N2CCC(Oc3ccc(OC(F)(F)F)cc3)CC2)cc1
MIC80 [1]: 0.007 µM (≈ 0.00401 µg/mL)

CCc1nc2ccc(F)cn2c1C(=O)NCc1ccc(OCc2ccc(OC(F)(F)F)cc2)cc1
Cmax [2]: 2620 ng/mL | MIC80 [1]: 0.084 µM (≈ 0.0409 µg/mL) | AUC(0-inf) [3]: 28200 ng·h/mL | clearance [4]: 4.76 mL/min/kg | MIC80 [5]: 0.028 µM (≈ 0.0136 µg/mL) | half-life [6]: 11.4 h | half-life [7]: 11 h | Tmax [8]: 1 h | Vd [9]: 3.85 L/kg | bioavailability [10]: 80.5%

CCc1nc2cc(Cl)ccn2c1C(=O)NCc1ccc(Nc2ccc(OC(F)(F)F)cc2)cc1
MIC80 [1]: 0.839 µM (≈ 0.41 µg/mL)

CCc1nc2cc(Cl)ccn2c1C(=O)NCc1ccc(Oc2ccc(OC(F)(F)F)cc2)cc1
MIC80 [1]: 0.064 µM (≈ 0.0314 µg/mL) | MIC80 [5]: 0.027 µM (≈ 0.0132 µg/mL)

CCc1nc2ccc(Cl)cn2c1C(=O)NCc1ccc(N2CCC(Oc3ccc(Cl)cc3)C2)cc1 (single isomer, unassigned; 40)
MIC80 [1]: 0.006 µM (≈ 0.00306 µg/mL)

CCc1nc2ccc(Cl)cn2c1C(=O)NCc1ccc(N2CCC(Oc3ccc(Cl)cc3)CC2)cc1
Cmax [2]: 3540 ng/mL | MIC80 [1]: 0.003 µM (≈ 0.00157 µg/mL) | AUC(0-inf) [3]: 30300 ng·h/mL | clearance [4]: 2.83 mL/min/kg | MIC80 [5]: < 0.001 µM | half-life [6]: 18.9 h | half-life [7]: 14.1 h | Tmax [8]: 2 h | Vd [9]: 1.34 L/kg | bioavailability [10]: 51.4%

CCc1nc2ccc(Cl)cn2c1C(=O)NCc1ccc(OCc2ccc(OC(F)(F)F)cc2)cc1
MIC80 [1]: 0.015 µM (≈ 0.00756 µg/mL)

CCc1nc2ccc(Cl)cn2c1C(=O)NCc1ccc(N2CCC(Oc3ccc(C(F)(F)F)cc3)CC2)cc1
Cmax [2]: 4100 ng/mL | MIC80 [1]: 0.026 µM (≈ 0.0145 µg/mL) | AUC(0-inf) [3]: 48900 ng·h/mL | clearance [4]: 2.23 mL/min/kg | MIC80 [5]: 0.009 µM (≈ 0.00501 µg/mL) | half-life [6]: 20 h | half-life [7]: 19.6 h | Tmax [8]: 2 h | Vd [9]: 2.39 L/kg | bioavailability [10]: 65.6%

CCc1nc2cc(Cl)ccn2c1C(=O)NCc1ccc(N2CCC(Oc3ccc(OC(F)(F)F)cc3)CC2)cc1
MIC80 [1]: 0.021 µM (≈ 0.012 µg/mL)

CCc1nc2cc(Cl)ccn2c1C(=O)NCc1ccc(N(C)c2ccc(OC(F)(F)F)cc2)cc1
MIC80 [1]: 0.04 µM (≈ 0.0201 µg/mL) | MIC80 [5]: 0.023 µM (≈ 0.0116 µg/mL)

CCc1nc2ccc(Cl)cn2c1C(=O)NCc1ccc(N2CCC(Oc3ccc(F)cc3)CC2)cc1
MIC80 [1]: 0.01 µM (≈ 0.00507 µg/mL)

CCc1nc2ccc(Cl)cn2c1C(=O)NCc1ccc(N2CCN(Cc3ccc(OC(F)(F)F)cc3)CC2)cc1
MIC80 [1]: 0.015 µM (≈ 0.00858 µg/mL) | MIC80 [5]: 0.082 µM (≈ 0.0469 µg/mL)

CCc1nc2ccc(Br)cn2c1C(=O)NCc1ccc(OCc2ccc(OC(F)(F)F)cc2)cc1
MIC80 [1]: 0.432 µM (≈ 0.237 µg/mL)

CCc1nc2ccccn2c1C(=O)NCc1ccc(OCc2ccc(OC(F)(F)F)cc2)cc1
MIC80 [1]: 0.027 µM (≈ 0.0127 µg/mL)
